According to PubChem BioAssay (NCI):
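96-well plates; 48 h exposure; 5 concentrations. Endpoints by linear interpolation between flanking doses. Not reached: highest tested concentration assigned. At the GI50, growth is halved. TGI: concentration producing complete growth inhibition.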

Assays:
Experiment in all cases: NCI tumour cell line growth inhibition, 48 h
HCT-15 colon = system: HCT-15 colon
UO-31 renal = system: UO-31 renal
RPMI-8226 leukemia = system: RPMI-8226 leukemia
ACHN renal = system: ACHN renal
T-47D breast = system: T-47D breast
CAKI-1 renal = system: CAKI-1 renal
OVCAR-8 ovarian = system: OVCAR-8 ovarian
SF-268 CNS = system: SF-268 CNS
U251 CNS = system: U251 CNS
NCI-H522 lung = system: NCI-H522 lung
MOLT-4 leukemia = system: MOLT-4 leukemia
A498 renal = system: A498 renal
SK-MEL-28 melanoma = system: SK-MEL-28 melanoma
HCT-116 colon = system: HCT-116 colon
SNB-19 CNS = system: SNB-19 CNS
SF-539 CNS = system: SF-539 CNS
SW-620 colon = system: SW-620 colon
KM12 colon = system: KM12 colon
SR leukemia = system: SR leukemia
A549 NSCLC = system: A549 NSCLC
MDA-MB-435 = system: MDA-MB-435
OVCAR-4 ovarian = system: OVCAR-4 ovarian
HT29 colon = system: HT29 colon
MDA-MB-231 breast = system: MDA-MB-231 breast
COLO 205 colon = system: COLO 205 colon
PC-3 prostate = system: PC-3 prostate
BT-549 breast = system: BT-549 breast
NCI-H226 lung = system: NCI-H226 lung

## C[C@H](NC(=O)CCC(F)(F)F)C(=O)N[C@@H]1C(=O)N(CCO)c2ncccc2-c2ccccc21
HCT-15 colon
  GI50: > 100 µM
  TGI: > 100 µM
UO-31 renal
  GI50: > 100 µM
  TGI: > 100 µM
RPMI-8226 leukemia
  GI50: > 100 µM
  TGI: > 100 µM
ACHN renal
  GI50: > 100 µM
  TGI: > 100 µM
T-47D breast
  GI50: > 100 µM
  TGI: > 100 µM
CAKI-1 renal
  GI50: > 100 µM
  TGI: > 100 µM
OVCAR-8 ovarian
  GI50: > 100 µM
  TGI: > 100 µM
SF-268 CNS
  GI50: > 100 µM
  TGI: > 100 µM
U251 CNS
  GI50: > 100 µM
  TGI: > 100 µM
NCI-H522 lung
  GI50: > 100 µM
  TGI: > 100 µM
MOLT-4 leukemia
  GI50: > 100 µM
  TGI: > 100 µM
A498 renal
  GI50: > 100 µM
  TGI: > 100 µM
SK-MEL-28 melanoma
  GI50: > 100 µM
  TGI: > 100 µM
HCT-116 colon
  GI50: > 100 µM
  TGI: > 100 µM
SNB-19 CNS
  GI50: > 100 µM
  TGI: > 100 µM
SF-539 CNS
  GI50: > 100 µM
  TGI: > 100 µM
SW-620 colon
  GI50: > 100 µM
  TGI: > 100 µM
KM12 colon
  GI50: > 100 µM
  TGI: > 100 µM
SR leukemia
  GI50: > 100 µM
  TGI: > 100 µM
A549 NSCLC
  GI50: > 100 µM
  TGI: > 100 µM
MDA-MB-435
  GI50: > 100 µM
  TGI: > 100 µM
OVCAR-4 ovarian
  GI50: > 100 µM
  TGI: > 100 µM
HT29 colon
  GI50: > 100 µM
  TGI: > 100 µM
MDA-MB-231 breast
  GI50: > 100 µM
  TGI: > 100 µM
COLO 205 colon
  GI50: > 100 µM
  TGI: > 100 µM
PC-3 prostate
  GI50: > 100 µM
  TGI: > 100 µM
BT-549 breast
  GI50: > 100 µM
  TGI: > 100 µM
NCI-H226 lung
  GI50: > 100 µM
  TGI: > 100 µM
